Measured values reported in patent US20070093969A1, “Molecular nephrotoxicology modeling” (priority 2002, published 2007).

What was measured:
[1] = system: patients; details: human, in vivo; cited from earlier work
[2] = system: rats; details: rat, in vivo; cited from earlier work
[3] = system: kidney tissue gene expression; details: rat, in vivo
[4] = system: rats; details: rat, in vivo; cited from earlier work; remark: listed apart in the source
[5] = system: mouse; details: in vivo; cited from earlier work
[6] = system: rats; details: rat, in vivo; cited from earlier work; remark: listed apart in the source

For `Nc1ccn(C[C@@H](CO)OCP(=O)(O)O)c(=O)n1` [cidofovir, Cidofovir], the “patients with dose-dependent asymptomatic proteinuria” value [1] is given as “Approximately 40%” and the “patients with elevated serum creatinine levels” value [1] is given as 25%.

In the case of `CC(=N)S` [thioacetamide, Thioacetamide], the “serum total bilirubin, aspartate aminotransferase, alanine aminotransferase, BUN, creatinine and TNFα” value [2] is listed as “elevated”.

In the case of `ClC(Cl)Cl` [chloroform, Chloroform (CHCl3)], the “Tox Group Mean, GLGC Identifier 1143” value [3] is reported as 131.83, the “Tox Group Mean, GLGC Identifier 1409” value [3] is reported as 298.20 and the “Tox Group Mean, GLGC Identifier 1509” value [3] is reported as 431.65. The “Tox Group Mean, GLGC Identifier 1581” value [3] was 87.66, the “Tox Group Mean, GLGC Identifier 1644” value [3] was 418.83 and the “Tox Group Mean, GLGC Identifier 1652” value [3] was 476.16. For the same compound, the “Tox Group Mean, GLGC Identifier 1653” value [3] was 686.13, the “Tox Group Mean, GLGC Identifier 1877” value [3] was 444.75 and the “Tox Group Mean, GLGC Identifier 1929” value [3] was 536.97. For the same compound, the “Tox Group Mean, GLGC Identifier 1949” value [3] was 57.75, the “Tox Group Mean, GLGC Identifier 2059” value [3] was 219.06 and the “Tox Group Mean, GLGC Identifier 2439” value [3] was 102.63. For the same compound, the “Tox Group Mean, GLGC Identifier 2912” value [3] was 1436.37, the “Tox Group Mean, GLGC Identifier 3015” value [3] was 2837.91 and the “Tox Group Mean, GLGC Identifier 3091” value [3] was 421.64. For the same compound, the “Tox Group Mean, GLGC Identifier 3803” value [3] was 975.63, the “Tox Group Mean, GLGC Identifier 3875” value [3] was 252.35 and the “Tox Group Mean, GLGC Identifier 4178” value [3] was 444.39. The “Tox Group Mean, GLGC Identifier 4462” value [3] was 414.41, the “Tox Group Mean, GLGC Identifier 4463” value [3] was 43.16 and the “Tox Group Mean, GLGC Identifier 4473” value [3] was 95.76. The “Tox Group Mean, GLGC Identifier 4933” value [3] was 743.88, the “Tox Group Mean, GLGC Identifier 5369” value [3] was 274.28 and the “Tox Group Mean, GLGC Identifier 6127” value [3] was 41.36. For the same compound, the “Tox Group Mean, GLGC Identifier 6343” value [3] was 46.79, the “Tox Group Mean, GLGC Identifier 6641” value [3] was 233.86 and the “Tox Group Mean, GLGC Identifier 7216” value [3] was 123.29. For the same compound, the “Tox Group Mean, GLGC Identifier 7299” value [3] was 334.53, the “Tox Group Mean, GLGC Identifier 7505” value [3] was 274.29 and the “Tox Group Mean, GLGC Identifier 7622” value [3] was 88.74. The “Tox Group Mean, GLGC Identifier 7634” value [3] was 538.91, the “Tox Group Mean, GLGC Identifier 7936” value [3] was 93.98 and the “Tox Group Mean, GLGC Identifier 8721” value [3] was 73.87. For the same compound, the “Tox Group Mean, GLGC Identifier 8829” value [3] was 505.66, the “Tox Group Mean, GLGC Identifier 8927” value [3] was 508.53 and the “Tox Group Mean, GLGC Identifier 8946” value [3] was 112.12. For the same compound, the “Tox Group Mean, GLGC Identifier 9116” value [3] was 269.31, the “Tox Group Mean, GLGC Identifier 9176” value [3] was 288.61 and the “Tox Group Mean, GLGC Identifier 9191” value [3] was 277.28. For the same compound, the “Tox Group Mean, GLGC Identifier 10130” value [3] was 117.70, the “Tox Group Mean, GLGC Identifier 11761” value [3] was 49.48 and the “Tox Group Mean, GLGC Identifier 11843” value [3] was 61.43. For the same compound, the “Tox Group Mean, GLGC Identifier 11953” value [3] was 1079.47, the “Tox Group Mean, GLGC Identifier 12129” value [3] was 245.65 and the “Tox Group Mean, GLGC Identifier 13610” value [3] was 226.14. The “Tox Group Mean, GLGC Identifier 13646” value [3] was 1169.38, the “Tox Group Mean, GLGC Identifier 13727” value [3] was 35.36 and the “Tox Group Mean, GLGC Identifier 14267” value [3] was 1171.51. The “Tox Group Mean, GLGC Identifier 15072” value [3] was 42.04, the “Tox Group Mean, GLGC Identifier 15836” value [3] was 121.07 and the “Tox Group Mean, GLGC Identifier 15964” value [3] was 583.51. For the same compound, the “Tox Group Mean, GLGC Identifier 16468” value [3] was 831.97, the “Tox Group Mean, GLGC Identifier 16469” value [3] was 991.10 and the “Tox Group Mean, GLGC Identifier 16756” value [3] was 361.18. For the same compound, the “Tox Group Mean, GLGC Identifier 16948” value [3] was 145.85, the “Tox Group Mean, GLGC Identifier 16958” value [3] was 61.46 and the “Tox Group Mean, GLGC Identifier 17361” value [3] was 50.93. The “Tox Group Mean, GLGC Identifier 17516” value [3] was 500.55, the “Tox Group Mean, GLGC Identifier 17524” value [3] was 799.10 and the “Tox Group Mean, GLGC Identifier 17541” value [3] was 1464.81. The “Tox Group Mean, GLGC Identifier 18509” value [3] was 311.54, the “Tox Group Mean, GLGC Identifier 19110” value [3] was 84.32 and the “Tox Group Mean, GLGC Identifier 19144” value [3] was 36.63. The “Tox Group Mean, GLGC Identifier 19377” value [3] was 155.74, the “Tox Group Mean, GLGC Identifier 19679” value [3] was 440.67 and the “Tox Group Mean, GLGC Identifier 19822” value [3] was 994.53. The “Tox Group Mean, GLGC Identifier 20000” value [3] was 93.69, the “Tox Group Mean, GLGC Identifier 20582” value [3] was 347.72 and the “Tox Group Mean, GLGC Identifier 20708” value [3] was 80.85. The “Tox Group Mean, GLGC Identifier 20725” value [3] was 621.86, the “Tox Group Mean, GLGC Identifier 20741” value [3] was 236.26 and the “Tox Group Mean, GLGC Identifier 21025” value [3] was 233.83. For the same compound, the “Tox Group Mean, GLGC Identifier 21060” value [3] was 133.69, the “Tox Group Mean, GLGC Identifier 21061” value [3] was 86.99 and the “Tox Group Mean, GLGC Identifier 21088” value [3] was 56.92. The “Tox Group Mean, GLGC Identifier 21562” value [3] was 265.87, the “Tox Group Mean, GLGC Identifier 22490” value [3] was 811.57 and the “Tox Group Mean, GLGC Identifier 22537” value [3] was 145.19. The “Tox Group Mean, GLGC Identifier 22648” value [3] was 313.31, the “Tox Group Mean, GLGC Identifier 22783” value [3] was 473.86 and the “Tox Group Mean, GLGC Identifier 22855” value [3] was 373.13. For the same compound, the “Tox Group Mean, GLGC Identifier 22985” value [3] was 83.55, the “Tox Group Mean, GLGC Identifier 23033” value [3] was 431.39 and the “Tox Group Mean, GLGC Identifier 23115” value [3] was 278.57. The “Tox Group Mean, GLGC Identifier 23282” value [3] was 425.15, the “Tox Group Mean, GLGC Identifier 23718” value [3] was 65.41 and the “Tox Group Mean, GLGC Identifier 24234” value [3] was 408.25. For the same compound, the “Tox Group Mean, GLGC Identifier 24437” value [3] was 56.38, the “Tox Group Mean, GLGC Identifier 25168” value [3] was 32.68 and the “Tox Group Mean, GLGC Identifier 25643” value [3] was 187.37. For the same compound, the “Tox Group Mean, GLGC Identifier 25777” value [3] was 1173.74, the “Tox Group Mean, GLGC Identifier 25862” value [3] was 38.61 and the “Tox Group Mean, GLGC Identifier 25921” value [3] was 47.30. For the same compound, the “Tox Group Mean, GLGC Identifier 26183” value [3] was 64.68.

For `N=C(N)c1ccc(OCCCCCOc2ccc(C(=N)N)cc2)cc1` [pentamidine, Pentamidine], the tubular toxicity [4] is given as “dose-related and reversible”.

For `ClC(Cl)(Cl)Cl` [carbon tetrachloride, Carbon tetrachloride], the glutathione peroxidase activity [6] is listed as “significant decrease” and the “kidney superoxide dismutase and catalase activities” value [6] is listed as “Significant increases”.
